# Measured values: paper PMC4515429, “Anti-Biofilm and Immunomodulatory Activities of Peptides That Inhibit Biofilms Formed by Pathogens Isolated from Cystic Fibrosis Patients” (Antibiotics, 2014)
# Like-named read-outs stand apart in the source and are kept apart here. Where a SMILES comes first, the peptide text is derived from it. Bridges are numbered along the chain shown (N, C = ends). Where no end group is shown, it is not given here. [ ]: non-standard residue; d: D form. The star is where a group is joined. X1 = CC[C@H](C)CCCCC(=O)*; Dab = NCC[C@H](N)C(=O)O
# Key:
# B. cenocepacia 4813 = assay: Anti-biofilm activity of 1018 derivatives (Table 4); assay type: cell-based, Burkholderia cenocepacia; conditions: 15 µg/mL peptide
# Procedure: Biofilm formation was initially analyzed using a static abiotic solid surface assay as described elsewhere [21]. Dilutions (1/100) of overnight cultures were incubated in BM2 glucose medium (62 mM potassium phosphate buffer (pH 7), 7 mM (NH4)2SO4, 2 mM MgSO4, 10 μM FeSO4, 0.4% (wt/vol) glucose, 0.5% (wt/vol) Casamino Acids) in polypropylene microtiter plates (Fisher Scientific, Waltham, MA, USA) in the presence of the different peptides for 22 h at 37 °C. Planktonic cells were removed and biofilm cells adhering to the side of the tubes were stained with crystal violet, extracted into ethanol, and the optical density at 595 nm (OD595) measured using a microtiter plate reader (Bio-Tek Instruments Inc., Winooski, VT, USA). Peptides were added at time zero (prior to adding the diluted, overnight cultures) at various concentrations, and the decrease in biofilm formation was recorded at 22 h for P. aeruginosa, Burkholderia and Methicillin-resistant Staphylococcus aureus isolates.
# P. aeruginosa PA14 [1] = assay: Anti-biofilm activity, BioFlux apparatus; assay type: cell-based, Pseudomonas aeruginosa; conditions: 15 µg/mL peptide
# [2] = tested on: planktonic cells of Burkholderia strains
# Procedure: (§1) In addition to the wild type lab isolates Pseudomonas aeruginosa strains PAO1 and PA14, a variety of cystic fibrosis clinical isolates of P. aeruginosa and Burkholderia cepacia complex strains were utilized (Table 1). Planktonic cells from each of the P. aeruginosa and B. cepacia strains were grown in BM2 glucose or cation-adjusted Mueller-Hinton. The minimal inhibitory concentration (MIC) for peptides in brain-heart infusion (BHI) was assessed by the broth microdilution method with minor modifications for cationic peptides. […] MIC assays were performed in sterile 96-well polypropylene microtiter plates. […] The plates were incubated at 37 °C for 18 h.
# P. aeruginosa PA14 [3] = tested on: P. aeruginosa PA14
# Procedure: as §1
# [4] = tested on: TNF-α production by human peripheral blood mononuclear cells; assay: LPS-induced TNF-α production in PBMCs, ELISA; assay type: cell-based; conditions: LPS-stimulated PBMCs, Figure 4B
# Procedure: (§2) (A) Human peripheral blood mononuclear cells were subjected to 20 µg/mL and 100 µg/mL of HE1, HE4, HE10, HE12, and 1018 for 24 h. Monocyte chemotactic protein-1 (MCP-1) production was assessed using sandwich enzyme linked immunosorbent assay (ELISA). The level of MCP-1 induction was similar for HE1, HE4, HE10, and 1018 at 100 µg/mL; (B) LPS (20 ng/mL) was co-administered with 20 µg/mL of each of the aforementioned peptides for 24 h. The tumor necrosis factor-alpha (TNF-α) production in response to both stimulants was assessed using enzyme linked immunosorbent assay (ELISA) and compared to lipopolysaccharides (LPS) alone. […] Lactate dehydrogenase release from peripheral blood mononuclear cells (PBMCs) was measured to assess the toxicity of 20 µg/mL and 100 µg/mL of 1018 and its derivatives.
# These studies were done as described previously. Briefly, human peripheral blood mononuclear cells (PBMCs) were isolated from the blood of healthy individuals obtained under University of British Columbia (UBC) human ethics approval. […] To assess chemokine induction after 24 h, the levels of chemokine MCP-1 (CCL2) were assessed in the supernatants three times independently using a sandwich ELISA kit (BioSource International, Grand Island, NY, USA). […] Secretion of TNF-α was monitored by capture ELISA (eBiosciences, San Diego, CA, USA) after 24 h.
# [5] = tested on: methicillin resistant Staphylococcus aureus (MRSA); assay: Biofilm inhibition in 96-well plates, static conditions; assay type: cell-based; conditions: polypropylene microtiter plates, BM2, 24 h, 37 °C, crystal violet, absorbance 595 nm
# Procedure: Figure 3 Biofilm inhibitory activity against methicillin resistant Staphylococcus aureus (MRSA) in 96-well plates. […] Statistical significance was assessed using one-way ANOVA (*, p < 0.05; ***, p < 0.001; ****, p < 0.0001).
# P. aeruginosa PA14 [6] = assay: Flow cell biofilm assay, confocal microscopy; assay type: cell-based, Pseudomonas aeruginosa; conditions: 72 h, 37 °C, inhibition and eradication conditions, Syto-9/PI confocal imaging
# Procedure: For biofilm prevention conditions, the peptides were added to the medium from the beginning of the experiment. For eradication experiments, bacteria were allowed to develop structured 2-day-old biofilms prior to peptide and antibiotics treatment for the following 24 h.
# Biofilms were grown for 72 h, in the absence or presence of the desired concentration of the different peptides, at 37 °C in flow chambers with channel dimensions of 1 by 4 by 40 mm, and then stained and examined by confocal microscopy, as described previously. For biofilm prevention studies the peptide was present in the flow-through medium throughout the biofilm growth while for eradication experiments, biofilms were allowed to grow for 2 days, before treating them with peptide for the last 24 h of the experiment.
# [7] = tested on: monocyte chemotactic protein-1 (MCP-1) production by human peripheral blood mononuclear cells; assay: MCP-1 induction in PBMCs, sandwich ELISA; assay type: cell-based; conditions: 24 h; for level of MCP-1 induction at 100 µg/mL: 100 µg/mL peptide; for MCP-1 induction: 20 and 100 µg/mL peptide, cf. untreated control
# Procedure: as §2
# These studies were done as described previously. Briefly, human peripheral blood mononuclear cells (PBMCs) were isolated from the blood of healthy individuals obtained under University of British Columbia (UBC) human ethics approval. PBMCs were diluted to 2 × 10^6 cells/ml in RPMI-1640 medium (Gibco®, Grand Island, NY, USA) supplemented with 10% fetal bovine serum (FBS). Subsequently, 250 µL of cells were seeded in each well of a 48-well dish. […] To assess chemokine induction after 24 h, the levels of chemokine MCP-1 (CCL2) were assessed in the supernatants three times independently using a sandwich ELISA kit (BioSource International, Grand Island, NY, USA). To look at the anti-inflammatory activity of the peptides in suppressing LPS-induced TNFα, P. aeruginosa LPS was added at a final concentration of 20 ng/mL as well as peptides at 20 μg/mL or 100 μg/mL. Secretion of TNF-α was monitored by capture ELISA (eBiosciences, San Diego, CA, USA) after 24 h.
# P. aeruginosa PA01 = conditions: 18 h
# Procedure: as §1
# [8] = tested on: P. aeruginosa C2773 (Classic)
# Procedure: as §1
# [9] = tested on: B. ambifaria CEP0996 (VII); conditions: 18 h
# Procedure: as §1
# [10] = tested on: P. aeruginosa 4020 (Classic)
# Procedure: as §1
# [11] = tested on: P. aeruginosa C4278 (Mucoid)
# Procedure: as §1
# [12] = tested on: P. aeruginosa 2639 (Mucoid)
# Procedure: as §1
# B. dolosa CEP0021 (VI) = conditions: 18 h
# Procedure: as §1
# [13] = tested on: B. cenocepacia 4813 (IIIa); conditions: 18 h
# Procedure: as §1
# [14] = tested on: B. cenocepacia CEP509 (IIIb); conditions: 18 h
# Procedure: as §1
# [15] = tested on: P. aeruginosa 7633 (Entire)
# Procedure: as §1
# [16] = tested on: B. cenocepacia C5424 (IIIa); conditions: 18 h
# Procedure: as §1
# [17] = tested on: P. aeruginosa C4276 (Classic)
# Procedure: as §1
# [18] = tested on: P. aeruginosa 7632 (Classic)
# Procedure: as §1
# [19] = tested on: P. aeruginosa 3195 (Classic)
# Procedure: as §1
# [20] = tested on: P. aeruginosa 4608 (Mucoid)
# Procedure: as §1
# B. stabilis C6061 (IV) = conditions: 18 h
# Procedure: as §1
# [21] = tested on: P. aeruginosa 1172 (Classic)
# Procedure: as §1
# [22] = tested on: B. cenocepacia CEP0055 (IIIb); conditions: 18 h
# Procedure: as §1
# [23] = tested on: B. multivorans D2661 (Genomovar II); conditions: 18 h
# Procedure: as §1
# [24] = tested on: P. aeruginosa 2631 (Classic)
# Procedure: as §1
# [25] = tested on: P. aeruginosa 3330 (Classic)
# Procedure: as §1
# P. aeruginosa = conditions: at one sixteenth the minimum inhibitory concentration (MIC); cited from earlier work
# Description: Cationic host defense (antimicrobial) peptides represent a novel alternative to conventional antibiotics. […] Similar results were subsequently shown by other groups. This encouraged t ...
# [26] = planktonic cells, broth microdilution, BHI, 5 × 10^5 CFU/mL, 37 °C, performed at least three times
# [27] = planktonic cells, broth microdilution, BHI, 5 × 10^5 CFU/mL, 37 °C, 18 h, performed at least three times
compound,measurement,setting,value
"VRWARVARILRV [HE3, 1018 derivative, reverse of HE2]",Anti-Biofilm Activity (% Decrease in Biofilm),B. cenocepacia 4813,21%
same,Anti-Biofilm Activity (% Decrease in Biofilm),P. aeruginosa PA14 [1],31%
KRWWKWIRW-NH2 (C-terminus assumed) [HHC-10],MIC against planktonic cells of Burkholderia strains,[2],> 256 µg/mL
"VRLIRAVRAWRV [HE2, 1018 derivative, break hydrophobicity; maintain charge]",Anti-Biofilm Activity (% Decrease in Biofilm),B. cenocepacia 4813,24%
same,Anti-Biofilm Activity (% Decrease in Biofilm),P. aeruginosa PA14 [1],42%
RFKRVARVIW [HE12],MIC,"P. aeruginosa PA14 [3]; PA14, 18 h",80 µg/mL
KRWWKWWRR-NH2 (C-terminus assumed) [HHC-36],MIC against planktonic cells of Burkholderia strains,[2],> 256 µg/mL
VRLIWAVRIWRR [HE4],MIC,"P. aeruginosa PA14 [3]; PA14, 18 h",80 µg/mL
"VRLI--VRIWRR [HE10, 1018 derivative, truncated to remove hydrophobic patch]",suppression of TNF-α production,[4],strongly suppressing the production of TNF-α
same,biofilm inhibitory activity against MRSA compared to 1018,[5],notably more active
same,anti-biofilm activity in flow cells,P. aeruginosa PA14 [6],strong anti-biofilm activity comparable with that of 1018
same,level of MCP-1 induction at 100 µg/mL,[7],similar
same,MCP-1 induction,[7],significantly induced MCP-1
RRWIRVAVILRV [HE1],level of MCP-1 induction at 100 µg/mL,[7],similar
same,MCP-1 induction,[7],significantly induced MCP-1
same,Anti-Biofilm Activity (% Decrease in Biofilm),P. aeruginosa PA14 [1],93%
CC[C@H](C)CCCCC(=O)N[C@@H](CCN)C(=O)N[C@H](C(=O)N[C@@H](CCN)C(=O)N[C@H]1CCNC(=O)[C@H]([C@@H](C)O)NC(=O)[C@H](CCN)NC(=O)[C@H](CCN)NC(=O)[C@H](CC(C)C)NC(=O)[C@@H](Cc2ccccc2)NC(=O)[C@H](CCN)NC1=O)[C@@H](C)O [Polymyxin B] (X1-[Dab]T[Dab][Dab][Dab][dF]L[Dab][Dab]T; lactam 4-C (inferred); N-terminus assumed),MIC,P. aeruginosa PA01,2 µg/mL
same,MIC,"[8]; C2773 (Classic, 18 h)",4 µg/mL
same,MIC,[9],>128 µg/mL
same,MIC,"[10]; 4020 (Classic, 18 h)",2 µg/mL
same,MIC,"[11]; C4278 (Mucoid, 18 h)",2 µg/mL
same,MIC,"[12]; 2639 (Mucoid, 18 h)",2 µg/mL
same,MIC,B. dolosa CEP0021 (VI),>128 µg/mL
same,MIC,"P. aeruginosa PA14 [3]; PA14, 18 h",2 µg/mL
same,MIC,[13],>128 µg/mL
same,MIC,[14],>128 µg/mL
same,MIC,"[15]; 7633 (Entire, 18 h)",2 µg/mL
same,MIC,[16],>128 µg/mL
same,MIC,"[17]; C4276 (Classic, 18 h)",2 µg/mL
same,MIC,"[18]; 7632 (Classic, 18 h)",2 µg/mL
same,MIC,"[19]; 3195 (Classic, 18 h)",2 µg/mL
same,MIC,"[20]; 4608 (Mucoid, 18 h)",2 µg/mL
same,MIC,B. stabilis C6061 (IV),>128 µg/mL
same,MIC,"[21]; 1172 (Classic, 18 h)",2 µg/mL
same,MIC,[22],>128 µg/mL
same,MIC,[23],>128 µg/mL
same,MIC,"[24]; 2631 (Classic, 18 h)",4 µg/mL
same,MIC,"[25]; 3330 (Classic, 18 h)",2 µg/mL
CC[C@H](C)[C@H](NC(=O)[C@H](CCCCN)NC(=O)[C@H](CCC(=O)O)NC(=O)[C@H](CCCCN)NC(=O)[C@H](CO)NC(=O)[C@H](CCCCN)NC(=O)[C@H](CCCNC(=N)N)NC(=O)[C@H](Cc1ccccc1)NC(=O)[C@H](Cc1ccccc1)NC(=O)[C@H](CC(=O)O)NC(=O)CNC(=O)[C@H](CC(C)C)NC(=O)[C@@H](N)CC(C)C)C(=O)NCC(=O)N[C@@H](CCCCN)C(=O)N[C@@H](CCC(=O)O)C(=O)N[C@@H](Cc1ccccc1)C(=O)N[C@@H](CCCCN)C(=O)N[C@@H](CCCNC(=N)N)C(=O)N[C@H](C(=O)N[C@H](C(=O)N[C@@H](CCC(N)=O)C(=O)N[C@@H](CCCNC(=N)N)C(=O)N[C@H](C(=O)N[C@@H](CCCCN)C(=O)N[C@@H](CC(=O)O)C(=O)N[C@@H](Cc1ccccc1)C(=O)N[C@@H](CC(C)C)C(=O)N[C@@H](CCCNC(=N)N)C(=O)N[C@@H](CC(N)=O)C(=O)N[C@@H](CC(C)C)C(=O)N[C@H](C(=O)N1CCC[C@H]1C(=O)N[C@@H](CCCNC(=N)N)C(=O)N[C@H](C(=O)N[C@@H](CCC(=O)O)C(=O)N[C@@H](CO)C(=O)O)[C@@H](C)O)C(C)C)[C@@H](C)CC)C(C)C)[C@@H](C)CC [LL-37],MIC,P. aeruginosa PA01; [26],32 µg/mL
same,MIC,[8]; [27],256 µg/mL
same,MIC,[9]; [26],>512 µg/mL
same,MIC,[10]; [27],>128 µg/mL
same,MIC,[11]; [27],>256 µg/mL
same,MIC,[12]; [27],>128 µg/mL
same,MIC,B. dolosa CEP0021 (VI); [26],>512 µg/mL
same,MIC,P. aeruginosa PA14 [3]; [27],32 µg/mL
same,MIC,[13]; [26],>256 µg/mL
same,MIC,[14]; [26],>512 µg/mL
same,MIC,[15]; [27],>128 µg/mL
same,MIC,[16]; [26],>256 µg/mL
same,MIC,[17]; [27],256 µg/mL
same,MIC,[18]; [27],256 µg/mL
same,MIC,[19]; [27],64 µg/mL
same,MIC,[20]; [27],>128 µg/mL
same,MIC,B. stabilis C6061 (IV); [26],>512 µg/mL
same,MIC,[21]; [27],>128 µg/mL
same,MIC,[22]; [26],>512 µg/mL
same,MIC,[23]; [26],>512 µg/mL
same,MIC,[24]; [27],>256 µg/mL
same,MIC,[25]; [27],>128 µg/mL
same,decrease in biofilm formation,P. aeruginosa,50%
